# Experimental data as given in patent US20070128136A1, “Terrein compound having melanin biosynthesis inhibitors and its preparation” (priority 2003, published 2007).
# Tests used:
# Format in all cases: cell-based
# Mel-Ab melanin cells [1] = experiment: Melanin biosynthesis inhibiting effect in Mel-Ab melanin cells; details: for melanin biosynthesis inhibition: terrein 0-100 uM, kojic acid 0-100 uM, FIG. 5 and FIG. 6
# Procedure: Particularly, Mel-Ab melanin cells were cultured in DMEM medium supplemented with 10% fetal bovine serum (FBS), 100 nM phobol 12-myristate 13-acetate, 1 nM cholera toxin, 50 ug/ml of streptomycin and 50 U/ml of penicillin under the condition of 5% CO2, 37° C. Mel-Ab melanin cells cultured in the above experimental example 1 were treated respectively with terrein compound and kojic acid, a conventional whitening agent, at different concentrations (0, 10, 25, 50, 75 and 100 uM of terrein compound and 0, 1, 10 and 100 uM of kojic acid). Both Mel-Ab melanin cells cultured under general culture conditions and Mel-Ab melanin cells treated with terrein compound of the present invention were observed under a microscope for comparison, and the result was shown in FIG. 7.
# [2] = tested on: ERK (extracellular signal-regulated kinase); experiment: ERK activation in Mel-Ab melanin cells by Western blot; details: 100 uM
# Procedure: (§1) In order to investigate melanin biosynthesis inhibiting mechanism of terrein compound of the present invention, Mel-Ab melanin cells cultured above were treated with 100 uM of terrein compound. And at each time point of 0, 2, 10, 30, 60, 180, and 360 minute, ERK (extracellular signal-regulated kinase) activation and MITF (microphthalmia-associated transcription factor) decomposition were investigated by Western blot.
# [3] = tested on: MITF (microphthalmia-associated transcription factor); experiment: MITF decomposition in Mel-Ab melanin cells by Western blot; details: 100 uM, with ERK activation
# Procedure: as §1
# Mel-Ab melanin cells [4] = experiment: Cytotoxicity test, crystal violet staining of Mel-Ab cells; details: 24 hours, under the concentration of 100 uM, FIG. 4
# Procedure: In order to investigate cytotoxicity of terrein compound of the present invention, Mel-Ab cells were treated with the terrein compound.
# Particularly, Mel-Ab melanin cells were cultured in DMEM medium supplemented with 10% fetal bovine serum (FBS), 100 nM phobol 12-myristate 13-acetate, 1 nM cholera toxin, 50 ug/ml of streptomycin and 50 U/ml of penicillin under the condition of 5% CO2, 37° C.
# Mel-Ab melanin cells cultured above were treated with terrein compound at different concentrations (0, 10, 25, 50, 75, 100 uM) for 24 hours, followed by further culture. Then, medium was removed. Cells were stained with 0.5 ml of 0.1% crystal violet and Mel-Ab melanin cells were checked. Crystal violet was removed by washing several times. Crystal violet remaining in cells was extracted by using 1.0 ml of 95% ethanol. OD590 of the extracted crystal violet was measured by ELISA reader in order to investigate vitality of cells.
Structure (SMILES),melanin biosynthesis inhibition (Mel-Ab melanin cells [1]),duration of ERK activation [2] [h],time from treatment to ERK1 and ERK2 activation [2] [min],ERK1 and ERK2 activation ([2]; FIG. 8),expression of MITF [3],melanin biosynthesis inhibiting effect relative to kojic acid (Mel-Ab melanin cells [1]; both at 10 uM) [times],"dark melanin of cells observed under a microscope (Mel-Ab melanin cells [1]; dose-dependently, FIG. 7)","cytotoxicity (vitality of cells, OD590 of crystal violet) (Mel-Ab melanin cells [4])"
"O=c1cc(CO)occ1O [kojic acid, reference compound]",inhibited melanin biosynthesis dose-dependently,–,–,–,–,–,–,–
"C/C=C/C1=CC(=O)C(O)C1O (stereo not drawn) [terrein compound, 4,5-dihydroxy-3-propenyl-2-cyclopenten-1-one]",inhibited melanin biosynthesis dose-dependently,≥ 6,2 to 10,activated fast,decreased,10,clearly decreased,no cytotoxicity
